Where a SMILES comes first, the peptide text is derived from it.
Columns and labels:
[1] = system: perennial ryegrass (Lolium perenne) seeds; assay: Petri dish root-inhibition bioassay on perennial ryegrass seeds; type: in vivo; details: for Root Length of Perennial Ryegrass Seedlings Expressed as a Percentage of the Control: average of 2 trials; for relative effectiveness among the five dipeptides: perennial ryegrass root inhibition
Method: Bioactive fractions of the eluate were identified with bioassays, then pooled and subjected to further purification steps. […] The dishes were sealed with parafilm and placed in a controlled environmental chamber. The light intensity in the growth chamber was 70 μmol m^-2 s^-1 at 25° C./15° C. day/night temperature with a 16 hr photoperiod. One ml of a given eluate fraction was applied to the filter paper in each petri dish. The study was conducted with seven replications for each eluate fraction. […] Louis, Mo. The fifth, Gln-Gln, was obtained from Bachem Bioscience Inc. The activity of each synthetically derived peptide was tested in seven replications on perennial ryegrass using the same bioassay technique described in Example 4 in the presence of increasing amounts of the dipeptides mixed with distilled water (Table V).

[2] = system: creeping bentgrass (Agrostis palustris); assay: Soil pot study of dipeptide bioactivity on creeping bentgrass; type: in vivo; details: for Mean root length of creeping bentgrass seedlings / Percentage of creeping bentgrass plants surviving: 21 days after treatment
Method: In a study designed to verify the bioactivity of the dipeptides on soil, Ala-Gln and Gly-Ala were applied to the surface of 56.3 cm^2 plastic pots filled with a Nicollet (fine, loamy, […], Aquic Hapludol soil. The two dipeptides were applied at 0 to 3552 mg/dm^2. […] The test specie was creeping bentgrass (Agrostis palustris).

[3] = 8 μg/cm^2 dipeptide on filter paper
[4] = 13 μg/cm^2 dipeptide on filter paper
[5] = 21 μg/cm^2 dipeptide on filter paper
[6] = 26 μg/cm^2 dipeptide on filter paper
[7] = 31 μg/cm^2 dipeptide on filter paper
[8] = 39 μg/cm^2 dipeptide on filter paper
[9] = 52 μg/cm^2 dipeptide on filter paper
[10] = concentrations of 1.8 g/dm^2 and above
[11] = much lower concentrations than 1.8 g/dm^2

SMILES | Root Length of Perennial Ryegrass Seedlings Expressed as a Percentage of the Control [1, 3] [%] | Root Length of Perennial Ryegrass Seedlings Expressed as a Percentage of the Control [1, 4] [%] | Root Length of Perennial Ryegrass Seedlings Expressed as a Percentage of the Control [1, 5] [%] | Root Length of Perennial Ryegrass Seedlings Expressed as a Percentage of the Control [1, 6] [%] | Root Length of Perennial Ryegrass Seedlings Expressed as a Percentage of the Control [1, 7] [%] | Root Length of Perennial Ryegrass Seedlings Expressed as a Percentage of the Control [1, 8] [%] | Root Length of Perennial Ryegrass Seedlings Expressed as a Percentage of the Control [1, 9] [%] | relative effectiveness among the five dipeptides [1] | Mean root length of creeping bentgrass seedlings ([2]; 89 mg/dm^2 on soil surface) [mm] | Percentage of creeping bentgrass plants surviving ([2]; 89 mg/dm^2 on soil surface) [%] | Mean root length of creeping bentgrass seedlings ([2]; 178 mg/dm^2 on soil surface) [mm] | Percentage of creeping bentgrass plants surviving ([2]; 178 mg/dm^2 on soil surface) [%] | Mean root length of creeping bentgrass seedlings ([2]; 355 mg/dm^2 on soil surface) [mm] | Percentage of creeping bentgrass plants surviving ([2]; 355 mg/dm^2 on soil surface) [%] | Mean root length of creeping bentgrass seedlings ([2]; 710 mg/dm^2 on soil surface) [mm] | Percentage of creeping bentgrass plants surviving ([2]; 710 mg/dm^2 on soil surface) [%] | Mean root length of creeping bentgrass seedlings ([2]; 1066 mg/dm^2 on soil surface) [mm] | Percentage of creeping bentgrass plants surviving ([2]; 1066 mg/dm^2 on soil surface) [%] | Mean root length of creeping bentgrass seedlings ([2]; 1776 mg/dm^2 on soil surface) [mm] | Percentage of creeping bentgrass plants surviving ([2]; 1776 mg/dm^2 on soil surface) [%] | other results
C[C@H](N)C(=O)N[C@@H](C)C(=O)O [Ala-Ala, alaninyl-alanine] (H-Ala-Ala-OH) | 74 | 44 | 27 | 5 | 1 | 2 | 0 | most effective |  |  |  |  |  |  |  |  |  |  |  |  | 
C[C@H](N)C(=O)N[C@@H](CCC(N)=O)C(=O)O [Ala-Gln, alaninyl-glutamine] (H-Ala-Gln-OH) | 83 | 70 | 49 | 41 | 4 | 0 | 0 |  | 20 | 100 | 15 | 40 | 2 | 30 | 0 | 25 | 0 | 5 | 0 | 0 | Mean root length of creeping bentgrass seedlings ([2]; 3552 mg/dm^2 on soil surface): 0 mm; Percentage of creeping bentgrass plants surviving ([2]; 3552 mg/dm^2 on soil surface): 0%; inhibition of emergence and establishment of creeping bentgrass [2, 10]: completely inhibit; inhibition of emergence and establishment of creeping bentgrass [2, 11]: partially effective
NC(=O)CC[C@H](NC(=O)[C@@H](N)CCC(N)=O)C(=O)O [Gln-Gln, glutaminyl-glutamine] (H-Gln-Gln-OH) | 107 | 89 | 82 | 63 | 12 | 3 | 0 |  |  |  |  |  |  |  |  |  |  |  |  |  | 
C[C@H](NC(=O)CN)C(=O)O [Gly-Ala, glycinyl-alanine] (H-Gly-Ala-OH) | 95 | 68 | 29 | 16 | 9 | 2 | 0 |  | 20 | 105 | 15 | 40 | 5 | 30 | 2 | 25 | 2 | 25 | 0 | 0 | Mean root length of creeping bentgrass seedlings ([2]; 3552 mg/dm^2 on soil surface): 0 mm; Percentage of creeping bentgrass plants surviving ([2]; 3552 mg/dm^2 on soil surface): 0%; inhibition of emergence and establishment of creeping bentgrass [2, 10]: completely inhibit; inhibition of emergence and establishment of creeping bentgrass [2, 11]: partially effective
C[C@H](N)C(=O)N[C@@H](CC(N)=O)C(=O)O [Ala-Asn, alaninylasparagine] (H-Ala-Asn-OH) | 101 | 85 | 63 | 29 | 2 | 0 | 0 | most effective |  |  |  |  |  |  |  |  |  |  |  |  | 

— patent US5290757A (priority 1993, dated 1994)
